Measurements from PMC3272276 (The Journal of Organic Chemistry, 2010).

System: Candida albicans
Assay: Antifungal activity
Assay type: cell-based

Row | Substance | inhibition of growth of Candida albicans (in words)
1 | mutremdamide A | None of the koshikamides or mutremdamide A inhibited the growth
2 | theonellamide A | antifungal activity of the extracts was traced to the known peptide theonellamide A
